In US20220315554A1, “COMPOUNDS COMPRISING A […] LIGAND AND USE THEREOF” (priority 2019, published 2022):
Numbered stars: 1 amine (or outer) side, 2 acyl side, 3 side chain; on linkers, the order of the positions; unused ones are H or OH. Bridge positions count the residues as written; N and C are the ends. Square brackets hold non-standard residues; d marks the D form. Peptide text beside a SMILES is read from it. * marks the point of attachment. X3 = NC(=O)[C@H](CCCCNC(=O)CN1CCN(CC(=O)O)CCN(CC(=O)O)CCN(CC(=O)O)CC1)NC(=O)CCC(=O)NCCCOCCOCCOCCCN*; mXylylene = c1cc(C[*:1])cc(C[*:2])c1; Hexanoyl = CCCCCC(=O)*

Assays:
[1] = target: T1, FAP-expressing human WI-38 fibroblasts (Homo sapiens, UniProt Q12884); test: Competitive FACS binding assay; settings: pIC50 Category (FACS), competition with 3 nM Cy5-labeled compound, 4° C., 1 hour
T1 construct: FAP-expressing human WI-38 fibroblasts (ECACC) were cultured in EMEM; host or cells: WI-38 human fibroblasts
T1 sequence (Q12884 1-760): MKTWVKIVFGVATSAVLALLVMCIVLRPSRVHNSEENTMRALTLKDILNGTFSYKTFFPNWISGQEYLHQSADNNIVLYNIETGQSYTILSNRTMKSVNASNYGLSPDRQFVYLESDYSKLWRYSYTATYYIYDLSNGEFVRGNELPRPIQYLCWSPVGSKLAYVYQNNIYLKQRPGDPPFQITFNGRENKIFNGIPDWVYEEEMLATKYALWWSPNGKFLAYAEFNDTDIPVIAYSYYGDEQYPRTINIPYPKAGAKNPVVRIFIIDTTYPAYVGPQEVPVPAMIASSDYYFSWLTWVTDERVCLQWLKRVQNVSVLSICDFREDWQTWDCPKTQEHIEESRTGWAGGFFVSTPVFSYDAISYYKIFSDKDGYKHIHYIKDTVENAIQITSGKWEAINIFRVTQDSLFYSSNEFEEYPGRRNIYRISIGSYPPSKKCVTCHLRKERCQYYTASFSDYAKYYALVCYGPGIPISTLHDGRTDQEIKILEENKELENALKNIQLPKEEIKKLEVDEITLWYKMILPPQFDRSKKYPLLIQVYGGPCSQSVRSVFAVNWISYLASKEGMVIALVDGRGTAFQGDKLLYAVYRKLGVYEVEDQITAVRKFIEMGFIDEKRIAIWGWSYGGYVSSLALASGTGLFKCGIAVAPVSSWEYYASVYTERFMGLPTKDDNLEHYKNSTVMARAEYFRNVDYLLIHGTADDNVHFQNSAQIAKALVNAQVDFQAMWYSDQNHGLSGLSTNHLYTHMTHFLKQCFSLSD
Experimental: Cells were analyzed in an Attune NxT flow cytometer. […]

Human recombinant FAP = target: T2, Human recombinant FAP (Homo sapiens, UniProt Q12884); test: FRET-based FAP protease activity assay; assay type: biochemical; design: purchased R&D systems 3715-SE; settings: pIC50 Category (Activity), FRET substrate, 37° C.
T2 sequence (Q12884 1-760): T1 sequence (Q12884 1-760)

Row | IC50 ([1]; WI-38 fibroblasts) | IC50 (Human recombinant FAP; recombinant human FAP) | Compound | IC50 [1] | IC50 (Human recombinant FAP)
1 | – | – | CCCCCC(=O)N[C@H]1CSCc2cc(CSCCNC(=O)CCC(=O)NCCCOCCOCCOCCCNC(=O)CCC(=O)NCCCOCCOCCOCCCNC(=O)CCC(=O)NCCCOCCOCCOCCCNC(=O)CCCNCCCOCCOCCOCCCNC(=O)CCCC[C@H]3SC[C@H]4NC(=O)N[C@H]43)cc(c2)CSC[C@@H](C(=O)O)NC(=O)[C@H](Cc2ccccc2)NC(=O)[C@H](CCC(N)=O)NC(=O)[C@H]([C@@H](C)O)NC(=O)[C@@H]2CCCN2C(=O)[C@@H]2CCCN2C1=O [3BP-4170, Hex-[Cys-(tMeBn(Bio-Ttds-Ttds-Ttds-Ttds-AET))-Pro-Pro-Thr-Gln-Phe-Cys]-OH] | 10 to 79.4 nM | 10 to 79.4 nM
2 | < 10 nM | < 10 nM | CCCCCC(=O)N[C@H]1CSCc2cccc(c2)CSC[C@@H](C(=O)N[C@@H](CC(=O)O)C(=O)N[C@@H](Cc2c[nH]cn2)C(=O)N[C@H](Cc2ccccc2)C(=O)N[C@@H](CCCNC(=N)N)C(=O)NCCCOCCOCCOCCCNC(=O)CCC(=O)N[C@@H](CCCCNC(=O)CN2CCN(CC(=O)O)CCN(CC(=O)O)CCN(CC(=O)O)CC2)C(N)=O)NC(=O)[C@H](Cc2ccccc2)NC(=O)[C@H](CCC(=O)O)NC(=O)[C@H]([C@@H](C)O)NC(=O)[C@@H]2CCCN2C(=O)[C@@H]2CCCN2C1=O [3BP-3276, Hex-[Cys(3MeBn)-Pro-Pro-Thr-Glu-Phe-Cys]-Asp-His-phe-Arg-Ttds-Lys(DOTA)-NH2] (Hexanoyl-CPPTEFCDH[dF]R-X3; linker 1-7 via mXylylene) | – | –
3 | 10 to 79.4 nM | 10 to 79.4 nM | CSCC[C@H](NC(C)=O)C(=O)N[C@H]1CSCc2cccc(c2)CSC[C@@H](C(=O)N[C@@H](C)C(=O)N[C@@H](Cc2c[nH]cn2)C(=O)N[C@@H](Cc2ccccc2)C(=O)N[C@@H](CCCNC(=N)N)C(=O)N[C@@H](CC(=O)O)C(N)=O)NC(=O)[C@H](Cc2ccccc2)NC(=O)[C@H](CCC(=O)O)NC(=O)[C@H]([C@@H](C)O)NC(=O)[C@@H]2CCCN2C(=O)[C@@H]2CCCN2C1=O [3BP-3194, Ac-Met-[Cys(3MeBn)-Pro-Pro-Thr-Glu-Phe-Cys]-Ala-His-Phe-Arg-Asp-NH2] (Ac-MCPPTEFCAHFRD-NH2; linker 2-8 via mXylylene) | – | –
4 | – | – | CCCCCC(=O)N[C@H]1CSCc2cc(CSCCNC(=O)CCC(=O)NCCCOCCOCCOCCCNC(=O)CCP(=O)(O)CN3CCN(CP(=O)(O)CO)CCN(CP(=O)(O)CO)CC3)cc(c2)CSC[C@@H](C(=O)O)NC(=O)[C@H](Cc2ccccc2)NC(=O)[C@H](CCC(N)=O)NC(=O)[C@H]([C@@H](C)O)NC(=O)[C@@H]2CCCN2C(=O)[C@@H]2CCCN2C1=O [3BP-4385, Hex-[Cys(tMeBn(NOPO-Ttds-AET))-Pro-Pro-Thr-Gln-Phe-Cys]-OH] | 10 to 79.4 nM | 10 to 79.4 nM
5 | – | – | CCCCCC(=O)N[C@H]1CSCc2cc(CSCCNC(=O)CCC(=O)NCCCOCCOCCOCCCNC(=O)[C@H](CS)NC(=O)[C@H](CC(=O)O)NC(=O)[C@@H](N)CC(=O)O)cc(c2)CSC[C@@H](C(=O)O)NC(=O)[C@H](Cc2ccccc2)NC(=O)[C@H](CCC(N)=O)NC(=O)[C@H]([C@@H](C)O)NC(=O)[C@@H]2CCCN2C(=O)[C@@H]2CCCN2C1=O [3BP-4302, Hex-[Cys-(tMeBn(H-Asp-Asp-Cys-Ttds-AET))-Pro-Pro-Thr-Gln-Phe-Cys]-OH] | 100 to 794 nM | 10 to 79.4 nM
6 | – | – | CCCCCC(=O)N[C@H]1CSCc2cc(CSCCNC(=O)CCC(=O)NCCCOCCOCCOCCCNC(=O)CN3CCN(CC(=O)O)CCN(CC(=O)O)CC3)cc(c2)CSC[C@@H](C(=O)O)NC(=O)[C@H](Cc2ccccc2)NC(=O)[C@H](CCC(N)=O)NC(=O)[C@H]([C@@H](C)O)NC(=O)[C@@H]2CCCN2C(=O)[C@@H]2CCCN2C1=O [3BP-4344, Hex-[Cys-(tMeBn(NOTA-Ttds-AET))-Pro-Pro-Thr-Gln-Phe-Cys]-OH] | < 10 nM | < 10 nM
7 | – | – | CCCC(NC(=O)CCC(=O)NCCCOCCOCCOCCCNC(=O)CN1CCN(CC(=O)O)CCN(CC(=O)O)CCN(CC(=O)O)CC1)C(=O)N[C@H]1CSCc2cc(CSCCNC(=O)CN3CCN(CC(=O)O)CCN(CC(=O)O)CCN(CC(=O)O)CC3)cc(c2)CSC[C@@H](C(=O)N[C@@H](CC(=O)O)C(=O)NCCCOCCOCCOCCCNC(=O)CCC(=O)N[C@@H](CCCCNC(=O)CN2CCN(CC(=O)O)CCN(CC(=O)O)CCN(CC(=O)O)CC2)C(N)=O)NC(=O)[C@H](Cc2ccccc2)NC(=O)[C@H](CCC(N)=O)NC(=O)[C@H]([C@@H](C)O)NC(=O)[C@@H]2CCCN2C(=O)[C@@H]2CCCN2C1=O (stereo partly drawn) [3BP-4392, DOTA-Ttds-Nle-[Cys(tMeBn(DOTA-AET))-Pro-Pro-Thr-Gln-Phe-Cys]-Asp-Ttds-Lys(DOTA)-NH2] | 10 to 79.4 nM | 10 to 79.4 nM
8 | 10 to 79.4 nM | 10 to 79.4 nM | CCCCCC(=O)N[C@H]1CSCc2cccc(c2)CSC[C@@H](C(N)=O)NC(=O)[C@H](Cc2c[nH]c3ccccc23)NC(=O)[C@H](CCC(N)=O)NC(=O)[C@H]([C@@H](C)O)NC(=O)[C@@H]2CCCN2C(=O)[C@@H]2CCCN2C1=O [3BP-3408, Hex-[Cys(3MeBn)-Pro-Pro-Thr-Gln-Trp-Cys]-NH2] (Hexanoyl-CPPTQWC-NH2; linker 1-7 via mXylylene) | – | –
9 | – | – | CCCCCC(=O)N[C@H]1CSCc2cc(CSCCNC(=O)CN3CCN4CCN5CCN(CC3)CC(=O)[O][Eu]([O]C(=O)C4)[O]C(=O)C5)cc(c2)CSC[C@@H](C(=O)O)NC(=O)[C@H](Cc2ccccc2)NC(=O)[C@H](CCC(N)=O)NC(=O)[C@H]([C@@H](C)O)NC(=O)[C@@H]2CCCN2C(=O)[C@@H]2CCCN2C1 [3BP-3662, Europium-Complex of Hex-[Cys(tMeBn(DOTA-AET))-Pro-Pro-Thr-Gln-Phe-Cys]-OH] | < 10 nM | < 10 nM
10 | > 1000 nM | 100 to 794 nM | CCCCCC(=O)N[C@H]1CSCc2cccc(c2)CSC[C@@H](C(N)=O)NC(=O)[C@H](Cc2ccccc2)NC(=O)[C@H](CCC(=O)O)NC(=O)[C@H]([C@@H](C)O)NC(=O)[C@@H]2CCCN2C(=O)[C@H](C)NC1=O [3BP-3346, Hex-[Cys(3MeBn)-Ala-Pro-Thr-Glu-Phe-Cys]-NH2] (Hexanoyl-CAPTEFC-NH2; linker 1-7 via mXylylene) | – | –
11 | – | – | CCCCCC(=O)N[C@H]1CSCc2cc(CSCCNC(=O)CN3CCN4CCN(CC(=O)O)CCN(CC3)CC(=O)[O][Cu][O]C(=O)C4)cc(c2)CSC[C@@H](C(=O)O)NC(=O)[C@H](Cc2ccccc2)NC(=O)[C@H](CCC(N)=O)NC(=O)[C@H]([C@@H](C)O)NC(=O)[C@@H]2CCCN2C(=O)[C@@H]2CCCN2C1 [3BP-4293, Copper(II)-Complex of Hex-[Cys(tMeBn(DOTA-AET))-Pro-Pro-Thr-Gln-Phe-Cys]-OH] | < 10 nM | < 10 nM
12 | – | – | CCCCCC(=O)N[C@H]1CSCc2cc(CSCCNC(=O)c3ccc(NN)nc3)cc(c2)CSC[C@@H](C(=O)O)NC(=O)[C@H](Cc2ccccc2)NC(=O)[C@H](CCC(N)=O)NC(=O)[C@H]([C@@H](C)O)NC(=O)[C@@H]2CCCN2C(=O)[C@@H]2CCCN2C1=O [3BP-4342, Hex-[Cys-(tMeBn(H-HYNIC-AET))-Pro-Pro-Thr-Gln-Phe-Cys]-OH] | 10 to 79.4 nM | < 10 nM
13 | – | – | CCCCCC(=O)N[C@H]1CSCc2cc(CSCCN)cc(c2)CSC[C@@H](C(=O)O)NC(=O)[C@H](Cc2ccccc2)NC(=O)[C@H](CCC(N)=O)NC(=O)[C@H]([C@@H](C)O)NC(=O)[C@@H]2CCCN2C(=O)[C@@H]2CCCN2C1=O [3BP-4089, Hex-[Cys(tMeBn(H-AET))-Pro-Pro-Thr-Gln-Phe-Cys]-OH] | 100 to 794 nM | 10 to 79.4 nM
14 | > 1000 nM | > 1000 nM | CCCCCC(=O)N[C@H]1CSCc2cccc(c2)CSC[C@@H](C(N)=O)NC(=O)[C@H](Cc2ccccc2)NC(=O)[C@H](CCC(=O)O)NC(=O)[C@H](C)NC(=O)[C@@H]2CCCN2C(=O)[C@@H]2CCCN2C1=O [3BP-3354, Hex-[Cys(3MeBn)-Pro-Pro-Ala-Glu-Phe-Cys]-NH2] (Hexanoyl-CPPAEFC-NH2; linker 1-7 via mXylylene) | – | –
15 | – | – | CCCCCC(=O)N[C@H]1CSCc2cc(CSCCNC(=O)COCCOCCNC(=O)CN(CCN(CC(=O)O)CC(=O)O)CCN(CC(=O)O)CC(=O)O)cc(c2)CSC[C@@H](C(=O)O)NC(=O)[C@H](Cc2ccccc2)NC(=O)[C@H](CCC(N)=O)NC(=O)[C@H]([C@@H](C)O)NC(=O)[C@@H]2CCCN2C(=O)[C@@H]2CCCN2C1=O [3BP-4224, Hex-[Cys-(tMeBn(DTPA-O2Oc-AET))-Pro-Pro-Thr-Gln-Phe-Cys]-OH] | 10 to 79.4 nM | 10 to 79.4 nM
16 | – | – | CCCCCC(=O)N[C@H]1CSCc2cc(CSCCNC(=O)CN3CCN(CC(=O)O)CCN(CC(=O)O)Cc4cccc(n4)C3)cc(c2)CSC[C@@H](C(=O)O)NC(=O)[C@H](Cc2ccccc2)NC(=O)[C@H](CCC(N)=O)NC(=O)[C@H]([C@@H](C)O)NC(=O)[C@@H]2CCCN2C(=O)[C@@H]2CCCN2C1=O [3BP-4379, Hex-[Cys-(tMeBn(PCTA-AET))-Pro-Pro-Thr-Gln-Phe-Cys]-OH] | < 10 nM | < 10 nM
